Results on two molecules are retold here after patent publication US11541122B2, “Glucose sensitive insulins and uses thereof” (Ziylo Limited, priority 2018, dated 2023).

In general, Kd refers to the constant that tells how readily two partners part at equilibrium. Read a high Kd as weaker binding.

The nature of the assay: Glucose affinity of macrocycles by fluorescence titration. The class given is binding. To be noted: pH 7.4, 10 mM phosphate buffer. How it is done: The optic properties (fluorescence) of the given macrocycle changes between the unbound state, and the glucose-bound state. Titrating the macrocycle with glucose in the relevant glucose concentration range, and measuring the changes in fluorescence of the system can thus give binding curves for binding to glucose, which can be used to determine the glucose binding constant, Ka (and the displacement constant, Kd).
All solutions were maintained at pH 7.4 using 10 mM Phosphate buffer solution. The titration was performed using a Horiba Scientific Duetta fluorescence spectrometer with an excitation wavelength of 310 nm and monitoring emission from 320-550 nm. The excitation and emission slit width/band widths were set to 5 nm. All points were acquired using a 0.5 second integration time and 5 accumulations.
2 mg of compound 6d (Mw=3540 g/mol) was dissolved in […] of ultrapure H2O (pH 7.4, 10 mM PB). The purity of Compound 6d was previously assayed by 1H NMR spectroscopy using a known concentration of DMF in D2O as an internal standard. The purity was calibrated at 80% (40 μM). This was then diluted by a four-fold to give a 10 μM solution of Compound 6d.
D-glucose (180.16 mg) was dissolved in 1 mL 10 mM PB and allowed to stand overnight to allow for equilibration of the a and 13 anomers. This was sequentially diluted to give a 20 mM stock solution of D-glucose. 250 μL of this solution was combined with 250 μL Compound 6d stock solution to give a 10 mM D-glucose/5 μM Compound 6d.
In a 3 mL cuvette, 1500 μL of Solution 1 was diluted with 1500 μL of 10 mM phosphate buffer to give a 5 μM solution. This was titrated with Solution 2. For each addition of titrant solution (Solution 2), the equivalent volume was removed from the cuvette prior to addition to keep the cell volume constant (3000 μL). Each addition was stirred for 1 minute then stirring stopped to allow 1 minute for the sample to equilibrate before acquisition. Additions (in μL): 0, 10, 10, 10, 10, 10, 20, 20, 50, 100, 100.

`CCc1c2c(CC)c3c(CC)c1CNC(=O)Nc1ccc(C(=O)NC(CCC(=O)NC(CCC(=O)O)(CCC(=O)O)CCC(=O)O)(CCC(=O)NC(CCC(=O)O)(CCC(=O)O)CCC(=O)O)CCC(=O)NC(CCC(=O)O)(CCC(=O)O)CCC(=O)O)cc1NC(=O)NCc1c(CC)c(c(CC)c(c1CC)CNC(=O)Nc1cc(C(=O)NC(CCC(=O)NC(CCC(=O)O)(CCC(=O)O)CCC(=O)O)(CCC(=O)NC(CCC(=O)O)(CCC(=O)O)CCC(=O)O)CCC(=O)NC(CCC(=O)O)(CCC(=O)O)CCC(=O)O)ccc1NC(=O)NC3)CNC(=O)Nc1cc(C(=O)NCCOCCOCCOCCN=[N+]=[N-])ccc1NC(=O)NC2` [compound 6d]: the “Kd (glucose), calculated as 1/Ka” value (D-glucose titration) was 68 µM. Further, the “Calculated Ka (glucose binding constant, 1:1 binding model)” value (D-glucose titration, 5 μM macrocycle, excitation 310 nm) was 14751.48 ± 637.3 M⁻¹.
Take `CCc1c2c(CC)c3c(CC)c1CNC(=O)Nc1ccc(C(=O)NC(CCC(=O)O)(CCC(=O)O)CCC(=O)O)cc1NC(=O)NCc1c(CC)c(c(CC)c(c1CC)CNC(=O)Nc1cc(C(=O)NC(CCC(=O)O)(CCC(=O)O)CCC(=O)O)ccc1NC(=O)NC3)CNC(=O)Nc1cc(C(=O)NCCOCCOCCOCCOCCN=[N+]=[N-])ccc1NC(=O)NC2` [compound 24, G1 Macrocycle PEG5 Azide]: binding (measured similarly to compound 6d) was characterised by a dissociation constant (Kd) of 131 µM.
